# Measured values from patent US20230023092A1, “TREATMENT OF DEPRESSION AND OTHER VARIOUS DISORDERS WITH PSILOCYBIN” (COMPASS […], priority 2019, published 2023).
# System: healthy subjects
# Test: Phase 1 study: adverse events (TEAEs, MedDRA coded)
# Assay type: in vivo, human
# Details: 25 mg oral
# Experimental: A Phase 1 randomized, double-blind, placebo-controlled study to evaluate the effect of psilocybin on cognitive and emotional processing as compared to placebo in healthy volunteers was conducted. The study investigated the short-term (Day 7) and long-term (Day 28) effects of moderate (10 mg) and high doses (25 mg) of psilocybin on key domains of cognition, such as episodic memory, attention, working and spatial memory, social cognition and elements of executive function, including cognitive flexibility.
# Each subject was assigned 1 treatment bottle containing 5 capsules packaged in a double-blind fashion, depending on the randomized treatment arm, the bottle contained one of the following: • a. Psilocybin 10 mg: 2×5-mg oral psilocybin capsules plus 3×placebo capsules • b. Psilocybin 25 mg: 5×5-mg oral psilocybin capsules • c. Placebo: 5×placebo capsules
# Each 5-mg oral psilocybin capsules comprised 5 mg crystalline psilocybin in the form or Polymorph A, 12.5 mg of SMCC 50, 79.5 mg of SMCC 90, 1 mg sodium starch glycolate, 1 mg colloidal silicon dioxide, and 1 mg sodium stearyl fumarate
# Adverse events: Throughout the course of the study, all AEs were monitored and recorded. Each AE was classified according to the following criteria: • i. […] Moderate: The AE produces some impairment of functioning, but is not hazardous to the subject's health. • iii. Severe: The AE produces significant impairment of functioning or incapacitation and is a definite hazard to the subject's health.
# Visit 3 (V3): Drug Administration (Day 0): The subject was asked to eat a light breakfast at least two hours prior to coming to the clinic for study drug administration. On Day 0 (V3), the subject underwent the SSTS, had vital signs obtained, medications reviewed, AEs recorded and eligibility reviewed prior to being randomized to study drug. The study drug was administered to up to six subjects simultaneously in individual beds separated by a curtain. The subject was invited to put on eyeshades and headphones, lie down and listen to calming music for the rest of the session (six hours). The subject was supported 1:1 with a chaperone and supervised by the study psychiatrist and lead therapist.
# During administration of psilocybin, each subject received one-on-one support from a trained assisting therapist and each dosing session was supervised by a study psychiatrist and a lead therapist. The study drug was administered simultaneously to up to six participants as a single 5-capsule oral dose (10 mg psilocybin: 2×5-mg psilocybin capsules plus 3×placebo capsules; 25 mg psilocybin: 5×5-mg psilocybin capsules; placebo: 5×placebo capsules). Twenty-five dosing sessions were completed, with up to six participants dosed simultaneously per session. Each session lasted approximately 6 to 8 hours with subjects encouraged to relax and engage in introspection for the duration. After the acute effects of the study drug had subsided, subjects were discharged.
compound,measurement,value
"CN(C)CCc1c[nH]c2cccc(OP(=O)(O)O)c12 [Psilocybin, psilocybin]","Affect lability, N (%)",3 (10.0)
same,"Affect lability, worst severity Mild, Events",2
same,"Affect lability, worst severity Mild, N (%)",2 (6.7)
same,"Affect lability, worst severity Moderate, Events",1
same,"Affect lability, worst severity Moderate, N (%)",1 (3.3)
same,"Affect lability, worst severity Severe, Events",0
same,"Affect lability, worst severity Severe, N (%)",0
same,"Any Selected TEAE, Events",106
same,"Any Selected TEAE, N (%)",27 (90.0)
same,"Any TEAE leading to death, Events",0
same,"Any TEAE leading to death, N (%)",0
same,"Any TEAE leading to study discontinuation, Events",0
same,"Any TEAE leading to study discontinuation, N (%)",0
same,"Any TEAE related to study treatment, Events",208
same,"Any TEAE related to study treatment, N (%)",29 (96.7)
same,"Any TEAE, Events",217
same,"Any TEAE, N (%)",29 (96.7)
same,"Any TEAE, worst severity Mild, Events",14
same,"Any TEAE, worst severity Mild, N (%)",3 (10.0)
same,"Any TEAE, worst severity Moderate, Events",52
same,"Any TEAE, worst severity Moderate, N (%)",16 (53.3)
same,"Any TEAE, worst severity Severe, Events",29
same,"Any TEAE, worst severity Severe, N (%)",10 (33.3)
same,"Any serious TEAE related to study treatment, Events",0
same,"Any serious TEAE related to study treatment, N (%)",0
same,"Any serious TEAE, Events",0
same,"Any serious TEAE, N (%)",0
same,"Any severe TEAE, Events",29
same,"Any severe TEAE, N (%)",10 (33.3)
same,"Change in sustained attention, Events",0
same,"Change in sustained attention, N (%)",0
same,"Depressed mood, Events",2
same,"Depressed mood, N (%)",2 (6.7)
same,"Dissociative identity disorder, Events",2
same,"Dissociative identity disorder, N (%)",2 (6.7)
same,"Emotional disorder, Events",6
same,"Emotional disorder, N (%)",5 (16.7)
same,"Emotional disorder, worst severity Mild, Events",1
same,"Emotional disorder, worst severity Mild, N (%)",1 (3.3)
same,"Emotional disorder, worst severity Moderate, Events",5
same,"Emotional disorder, worst severity Moderate, N (%)",4 (13.3)
same,"Emotional disorder, worst severity Severe, Events",0
same,"Emotional disorder, worst severity Severe, N (%)",0
same,"Euphoric mood, Events",8
same,"Euphoric mood, N (%)",7 (23.3)
same,"Euphoric mood, worst severity Mild, Events",3
same,"Euphoric mood, worst severity Mild, N (%)",3 (10.0)
same,"Euphoric mood, worst severity Moderate, Events",4
same,"Euphoric mood, worst severity Moderate, N (%)",4 (13.3)
same,"Euphoric mood, worst severity Severe, Events",0
same,"Euphoric mood, worst severity Severe, N (%)",0
same,"Fatigue, Events",8
same,"Fatigue, N (%)",8 (26.7)
same,"Fatigue, worst severity Mild, Events",3
same,"Fatigue, worst severity Mild, N (%)",3 (10.0)
same,"Fatigue, worst severity Moderate, Events",5
same,"Fatigue, worst severity Moderate, N (%)",5 (16.7)
same,"Fatigue, worst severity Severe, Events",0
same,"Fatigue, worst severity Severe, N (%)",0
same,"Feeling abnormal, Events",0
same,"Feeling abnormal, N (%)",0
same,"Feeling abnormal, worst severity Mild, Events",0
same,"Feeling abnormal, worst severity Mild, N (%)",0
same,"Feeling abnormal, worst severity Moderate, Events",0
same,"Feeling abnormal, worst severity Moderate, N (%)",0
same,"Feeling abnormal, worst severity Severe, Events",0
same,"Feeling abnormal, worst severity Severe, N (%)",0
same,"Feeling of relaxation, Events",1
same,"Feeling of relaxation, N (%)",1 (3.3)
same,"Gastrointestinal disorders, Events",5
same,"Gastrointestinal disorders, N (%)",5 (16.7)
same,"Gastrointestinal disorders, worst severity Mild, Events",4
same,"Gastrointestinal disorders, worst severity Mild, N (%)",4 (13.3)
same,"Gastrointestinal disorders, worst severity Moderate, Events",1
same,"Gastrointestinal disorders, worst severity Moderate, N (%)",1 (3.3)
same,"Gastrointestinal disorders, worst severity Severe, Events",0
same,"Gastrointestinal disorders, worst severity Severe, N (%)",0
same,"General disorders and administration site conditions, Events",18
same,"General disorders and administration site conditions, N (%)",15 (50.0)
same,"General disorders and administration site conditions, worst severity Mild, Events",8
same,"General disorders and administration site conditions, worst severity Mild, N (%)",8 (26.7)
same,"General disorders and administration site conditions, worst severity Moderate, Events",7
same,"General disorders and administration site conditions, worst severity Moderate, N (%)",6 (20.0)
same,"General disorders and administration site conditions, worst severity Severe, Events",1
same,"General disorders and administration site conditions, worst severity Severe, N (%)",1 (3.3)
same,"Hallucination, Events",2
same,"Hallucination, N (%)",2 (6.7)
same,"Hallucination, auditory, Events",4
same,"Hallucination, auditory, N (%)",4 (13.3)
same,"Hallucination, auditory, worst severity Mild, Events",1
same,"Hallucination, auditory, worst severity Mild, N (%)",1 (3.3)
same,"Hallucination, auditory, worst severity Moderate, Events",3
same,"Hallucination, auditory, worst severity Moderate, N (%)",3 (10.0)
same,"Hallucination, auditory, worst severity Severe, Events",0
same,"Hallucination, auditory, worst severity Severe, N (%)",0
same,"Hallucination, gustatory, Events",0
same,"Hallucination, gustatory, N (%)",0
same,"Hallucination, olfactory, Events",1
same,"Hallucination, olfactory, N (%)",1 (3.3)
same,"Hallucination, tactile, Events",4
same,"Hallucination, tactile, N (%)",4 (13.3)
same,"Hallucination, visual, Events",22
same,"Hallucination, visual, N (%)",21 (70.0)
same,"Hallucination, visual, worst severity Mild, Events",3
same,"Hallucination, visual, worst severity Mild, N (%)",3 (10.0)
same,"Hallucination, visual, worst severity Moderate, Events",13
same,"Hallucination, visual, worst severity Moderate, N (%)",13 (43.3)
same,"Hallucination, visual, worst severity Severe, Events",5
same,"Hallucination, visual, worst severity Severe, N (%)",5 (16.7)
same,"Hallucination, worst severity Mild, Events",0
same,"Hallucination, worst severity Mild, N (%)",0
same,"Hallucination, worst severity Moderate, Events",2
same,"Hallucination, worst severity Moderate, N (%)",2 (6.7)
same,"Hallucination, worst severity Severe, Events",0
same,"Hallucination, worst severity Severe, N (%)",0
same,"Headache, Events",16
same,"Headache, N (%)",15 (50.0)
same,"Headache, worst severity Mild, Events",10
same,"Headache, worst severity Mild, N (%)",10 (33.3)
same,"Headache, worst severity Moderate, Events",5
same,"Headache, worst severity Moderate, N (%)",5 (16.7)
same,"Headache, worst severity Severe, Events",0
same,"Headache, worst severity Severe, N (%)",0
same,"Hypoaesthesia, Events",4
same,"Hypoaesthesia, N (%)",3 (10.0)
same,"Hypoaesthesia, worst severity Mild, Events",4
same,"Hypoaesthesia, worst severity Mild, N (%)",3 (10.0)
same,"Hypoaesthesia, worst severity Moderate, Events",0
same,"Hypoaesthesia, worst severity Moderate, N (%)",0
same,"Hypoaesthesia, worst severity Severe, Events",0
same,"Hypoaesthesia, worst severity Severe, N (%)",0
